Data on 1 molecule can be found in patent publication US12404232B2, “Compounds and compositions for intracellular delivery of therapeutic agents” (ModernaTX, Inc., priority 2015, dated 2025).

The structures appear in SMILES notation.

Assay type in all cases: in vivo
Assay [1] has as its system mice. Put plainly: Luc expression (bioluminescence, total flux) after intravenous administration to mice. An outline of the steps: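 Lipid nanoparticle formulations carrying Luc mRNA were given intravenously to mice (n=6) at 0.5 mg/kg. Bioluminescence was imaged at 3, 6 and 24 h. Total flux was expressed as AUC relative to the standard MC3 formulation.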
Assay [2] has as its system mice. Briefly: Luc expression in liver, lung, spleen and femur after intravenous administration to mice. Conditions: Luc mRNA, i.v. to mice, 0.5 mpk, 6 hours. The procedure:
The efficacy of the nanoparticle compositions presented in Table 1A was further evaluated by measuring the expression of modified luciferase in the liver, lung, spleen, and femur upon administration of a given composition. Formulations were administered intravenously to mice (n=3) at a dosage of 0.5 mpk and bioluminescence measured after 6 hours. The standard MC3 formulation and a PBS control were also tested. […] Flux in the liver was lowest for compositions including Compounds 58, 59, 137, and 141. Flux in the spleen was highest for compositions including Compounds 4, 7, 33, 34, 48, 53, 108, 129, 130, and 148, and lowest for compositions including Compounds 9, 59, 124, and 141.

The subject of assay [3] is mice. Put plainly: Luc expression (total flux) after intramuscular administration. The following applies: 6 hours after intramuscular administration, Luc mRNA (Table 5B).

As for `CCCCCC=CCC=CCCCCCCCCC(CCCCCCCCC=CCC=CCCCCC)OC(=O)CCCN(C)C` (centres unmarked) [MC3, heptatriaconta-6,9,28,31-tetraen-19-yl 4-(dimethylamino)butanoate, reference compound], in the assay with mice [1] (Luc total flux (Table 3D)), the “AUC (p/s*h)” value was found to be 1.909E+011 p/s*h. Further, the “6 h Lipid/MC3 G.M. Luc Expression” value in the assay with mice [1] (i.v. administration, 6 h, geometric mean) is given as 1. In addition, the “AUC (h*p/s)” value with mice [1] (i.v. administration, total Luc flux (Table 3C)) was 8.24E+10 h*p/s. Also, in the assay on mice [2], the “Total Flux Femur” value is 2.56E+06, the “Total Flux Liver” value is recorded as 2.57E+09, the “Total Flux Lung” value is on record as 1.27E+07 and the “Total Flux Spleen” value is reported as 2.85E+07. In addition, the “Total flux (p/s) 0.01 mpk Dose” value in the assay with mice [3] is given as 3.23E+07 p/s.
